Measured values as given in patent publication US20200405697A1, “Antitumor Agent” (Taiho Pharmaceutical Co., Ltd, priority 2017, published 2020).

Test system: A549 (Human lung cancer cell line)
Test: Effect of combination of sulfonamide compound and other antitumor agent (CellTiter-Glo, combination index): A549
[1] = Table 36: Example Compound 1 345 nM + Prexasertib 1.98 nM, molar ratio 1:0.005730
[2] = Table 36: Example Compound 1 345 nM + SCH900776 910 nM, molar ratio 1:2.639
[3] = Table 36: Example Compound 1 517 nM + AZD6738 1037 nM, molar ratio 1:2.005
[4] = Table 36: Example Compound 1 517 nM + Fludarabine nucleoside 5910 nM, molar ratio 1:11.44
[5] = Table 36: Example Compound 1 517 nM + Prexasertib 2.96 nM, molar ratio 1:0.005730
[6] = Table 36: Example Compound 1 517 nM + SCH900776 1360 nM, molar ratio 1:2.639
[7] = Table 36: Example Compound 1 775 nM + AZD6738 1554 nM, molar ratio 1:2.005
[8] = Table 36: Example Compound 1 775 nM + Decitabine 1340 nM, molar ratio 1:1.733
[9] = Table 36: Example Compound 1 775 nM + Fludarabine nucleoside 8870 nM, molar ratio 1:11.44
[10] = Table 36: Example Compound 1 775 nM + Guadecitabine 469 nM, molar ratio 1:0.6048
[11] = Table 36: Example Compound 1 775 nM + Prexasertib 4.44 nM, molar ratio 1:0.005730
[12] = Table 36: Example Compound 1 775 nM + SCH900776 2050 nM, molar ratio 1:2.639
[13] = Table 36: Example Compound 1 1160 nM + AZD6738 2326 nM, molar ratio 1:2.005
[14] = Table 36: Example Compound 1 1160 nM + Cytarabine 110 nM, molar ratio 1:0.09524
[15] = Table 36: Example Compound 1 1160 nM + Decitabine 2010 nM, molar ratio 1:1.733
[16] = Table 36: Example Compound 1 1160 nM + Fludarabine nucleoside 13300 nM, molar ratio 1:11.44
[17] = Table 36: Example Compound 1 1160 nM + Gemcitabine 5.58 nM, molar ratio 1:0.004813
[18] = Table 36: Example Compound 1 1160 nM + Guadecitabine 702 nM, molar ratio 1:0.6048
[19] = Table 36: Example Compound 1 1160 nM + SCH900776 3060 nM, molar ratio 1:2.639
[20] = Table 36: Example Compound 1 1160 nM + Sunitinib 1870 nM, molar ratio 1:1.608
[21] = Table 36: Example Compound 1 1160 nM + Trifluridine 430 nM, molar ratio 1:0.3703
[22] = Table 36: Example Compound 1 1740 nM + 5-Fluorouracil 4300 nM, molar ratio 1:2.469
[23] = Table 36: Example Compound 1 1740 nM + Azacytidine 4080 nM, molar ratio 1:2.344
[24] = Table 36: Example Compound 1 1740 nM + Cabozantinib 5990 nM, molar ratio 1:3.443
[25] = Table 36: Example Compound 1 1740 nM + Cytarabine 166 nM, molar ratio 1:0.09524
[26] = Table 36: Example Compound 1 1740 nM + Decitabine 3020 nM, molar ratio 1:1.733
[27] = Table 36: Example Compound 1 1740 nM + Etoposide 3780 nM, molar ratio 1:2.174
[28] = Table 36: Example Compound 1 1740 nM + Fludarabine nucleoside 19900 nM, molar ratio 1:11.44
[29] = Table 36: Example Compound 1 1740 nM + Gemcitabine 8.37 nM, molar ratio 1:0.004813
[30] = Table 36: Example Compound 1 1740 nM + Guadecitabine 1050 nM, molar ratio 1:0.6048
[31] = Table 36: Example Compound 1 1740 nM + Lapatinib 5990 nM, molar ratio 1:3.443
[32] = Table 36: Example Compound 1 1740 nM + Luminespib 13.5 nM, molar ratio 1:0.007735
[33] = Table 36: Example Compound 1 1740 nM + Midostaurin 250 nM, molar ratio 1:0.1438
[34] = Table 36: Example Compound 1 1740 nM + Olaparib 14800 nM, molar ratio 1:8.494
[35] = Table 36: Example Compound 1 1740 nM + Oxaliplatin 1060 nM, molar ratio 1:0.6082
[36] = Table 36: Example Compound 1 1740 nM + SCH900776 4590 nM, molar ratio 1:2.639
[37] = Table 36: Example Compound 1 1740 nM + Sunitinib 2800 nM, molar ratio 1:1.608
[38] = Table 36: Example Compound 1 1740 nM + Talazoparib 7980 nM, molar ratio 1:4.587
[39] = Table 36: Example Compound 1 1740 nM + Trifluridine 644 nM, molar ratio 1:0.3703
[40] = Table 36: Example Compound 1 2620 nM + Carboplatin 79500 nM, molar ratio 1:30.35
[41] = Table 36: Example Compound 1 2620 nM + Cisplatin 3610 nM, molar ratio 1:3.669
[42] = Table 36: Example Compound 1 2620 nM + Trifluridine 970 nM, molar ratio 1:0.3703
[43] = Table 36: Example Compound 1 3920 nM + Carboplatin 119000 nM, molar ratio 1:30.35
[44] = Table 36: Example Compound 1 3920 nM + Cisplatin 14400 nM, molar ratio 1:3.669
[45] = Table 36: Example Compound 1 5890 nM + Carboplatin 179000 nM, molar ratio 1:30.35
[46] = Table 36: Example Compound 1 8830 nM + Carboplatin 268000 nM, molar ratio 1:30.35

Method: Each cell line was seeded at 90 L/well to a 96-well culture plate (Thermo Fisher Scientific, Inc.) according to the above tables. The cell-seeded plate was cultured in an incubator set to 37° C. and 500 CO2. On the day following seeding, varying concentrations of the sulfonamide compound and the other antitumor agent were added in combination to the cells. […] The serial dilutions of each compound, or DW was added at 5μL/well to the plate such that each compound and DW, or the sulfonamide compound and the other antitumor agent were combined. […] The plate after the addition was cultured at 37° C. for 3 days under 5% CO2 conditions.
Three days later, CellTiter-Glo(R) 2.0 Reagent (Promega Corporation) was added at 100 μL/well, and the amount of luminescence was measured using a plate reader EnSpire(R) Multimode Plate Reader (PerkinElmer Co., Ltd.).
An average value from 3 wells was calculated as to each drug condition from the obtained data, and cell survival rate normalized against control wells supplemented with the vehicle (DW) was calculated. A Fa (fractional inhibition) value was calculated by subtracting the cell survival rate from 1.

With `Cc1ccc(F)c([C@@H](C)[C@H](NS(=O)(=O)c2ccc(Br)cc2C(N)=O)c2n[nH]c(=O)o2)c1C` [Example 1, 5-bromo-2-(N-((1 S,2R)-2-(6-fluoro-2,3-dimethylphenyl)-1-(5-oxo-4,5-dihydro-1,3,4-oxadiazol-2-yl)propyl)sulfamoyl)benzamide] as the compound, how does the CI value [1] read?
The CI value was 0.363.

And the Fa value [1]?
Its Fa value is 0.4283.

And the CI value [2]?
Its CI value is 0.287.

What about the Fa value [2] of the same compound?
Its Fa value is 0.5875.

And the CI value [3]?
Its CI value is 0.486.

What about the Fa value [3] of the same compound?
Its Fa value is 0.5213.

What about the CI value [4] of the same compound?
Its CI value is 0.818.

And the Fa value [4]?
Its Fa value is 0.1823.

And the CI value [5]?
Its CI value is 0.207.

What about the Fa value [5] of the same compound?
The Fa value was 0.7673.

What about the CI value [6] of the same compound?
Its CI value is 0.250.

And the Fa value [6]?
The Fa value was 0.7191.

And the CI value [7]?
The CI value was 0.318.

And the Fa value [7]?
Its Fa value is 0.7989.

What about the CI value [8] of the same compound?
The CI value was 0.528.

And the Fa value [8]?
The Fa value was 0.3618.

And the CI value [9]?
Its CI value is 0.559.

And the Fa value [9]?
The Fa value was 0.5070.

What about the CI value [10] of the same compound?
The CI value was 0.558.

And the Fa value [10]?
Its Fa value is 0.3478.

And the CI value [11]?
The CI value was 0.174.

What about the Fa value [11] of the same compound?
The Fa value was 0.8934.

And the CI value [12]?
Its CI value is 0.210.

What about the Fa value [12] of the same compound?
Its Fa value is 0.8457.

And the CI value [13]?
The CI value was 0.309.

And the Fa value [13]?
Its Fa value is 0.8880.

What about the CI value [14] of the same compound?
The CI value was 0.842.

What about the Fa value [14] of the same compound?
Its Fa value is 0.4712.

What about the CI value [15] of the same compound?
Its CI value is 0.573.

And the Fa value [15]?
The Fa value was 0.4748.

What about the CI value [16] of the same compound?
The CI value was 0.405.

What about the Fa value [16] of the same compound?
The Fa value was 0.8089.

What about the CI value [17] of the same compound?
Its CI value is 0.865.

And the Fa value [17]?
Its Fa value is 0.6357.

What about the CI value [18] of the same compound?
Its CI value is 0.627.

And the Fa value [18]?
The Fa value was 0.4476.

And the CI value [19]?
Its CI value is 0.255.

And the Fa value [19]?
The Fa value was 0.8825.

And the CI value [20]?
Its CI value is 0.740.

What about the Fa value [20] of the same compound?
Its Fa value is 0.7514.

And the CI value [21]?
The CI value was 0.842.

And the Fa value [21]?
Its Fa value is 0.6401.

What about the CI value [22] of the same compound?
The CI value was 0.835.

And the Fa value [22]?
The Fa value was 0.7276.

And the CI value [23]?
The CI value was 0.820.

And the Fa value [23]?
Its Fa value is 0.6539.

What about the CI value [24] of the same compound?
The CI value was 0.688.

What about the Fa value [24] of the same compound?
The Fa value was 0.8307.

And the CI value [25]?
Its CI value is 0.619.

What about the Fa value [25] of the same compound?
Its Fa value is 0.7121.

And the CI value [26]?
Its CI value is 0.627.

And the Fa value [26]?
The Fa value was 0.5994.

What about the CI value [27] of the same compound?
The CI value was 0.631.

What about the Fa value [27] of the same compound?
Its Fa value is 0.7574.

And the CI value [28]?
The CI value was 0.537.

And the Fa value [28]?
The Fa value was 0.8431.

What about the CI value [29] of the same compound?
Its CI value is 0.757.

What about the Fa value [29] of the same compound?
The Fa value was 0.8623.

What about the CI value [30] of the same compound?
The CI value was 0.640.

What about the Fa value [30] of the same compound?
Its Fa value is 0.5997.

What about the CI value [31] of the same compound?
Its CI value is 0.400.

And the Fa value [31]?
The Fa value was 0.8672.

What about the CI value [32] of the same compound?
Its CI value is 0.828.

What about the Fa value [32] of the same compound?
Its Fa value is 0.8341.

And the CI value [33]?
Its CI value is 0.624.

What about the Fa value [33] of the same compound?
The Fa value was 0.8366.

And the CI value [34]?
The CI value was 0.575.

And the Fa value [34]?
Its Fa value is 0.7460.

What about the CI value [35] of the same compound?
The CI value was 0.787.

And the Fa value [35]?
Its Fa value is 0.7638.

And the CI value [36]?
Its CI value is 0.411.

What about the Fa value [36] of the same compound?
The Fa value was 0.8708.

What about the CI value [37] of the same compound?
Its CI value is 0.811.

And the Fa value [37]?
Its Fa value is 0.8380.

What about the CI value [38] of the same compound?
Its CI value is 0.508.

What about the Fa value [38] of the same compound?
Its Fa value is 0.7568.

And the CI value [39]?
The CI value was 0.696.

What about the Fa value [39] of the same compound?
Its Fa value is 0.8343.

What about the CI value [40] of the same compound?
The CI value was 0.519.

What about the Fa value [40] of the same compound?
Its Fa value is 0.8844.

And the CI value [41]?
The CI value was 0.701.

What about the Fa value [41] of the same compound?
The Fa value was 0.9341.

What about the CI value [42] of the same compound?
Its CI value is 0.744.

And the Fa value [42]?
The Fa value was 0.9017.

What about the CI value [43] of the same compound?
The CI value was 0.474.

What about the Fa value [43] of the same compound?
Its Fa value is 0.9458.

And the CI value [44]?
Its CI value is 0.608.

And the Fa value [44]?
Its Fa value is 0.9720.

And the CI value [45]?
Its CI value is 0.627.

And the Fa value [45]?
Its Fa value is 0.9560.

What about the CI value [46] of the same compound?
Its CI value is 0.635.

And the Fa value [46]?
The Fa value was 0.9773.
